Test results as given in the supplement of paper PMC11208160.

Assay: recombinant UMI read abundance after kanamycin selection (control-corrected) (log10(CPM+1)); higher = more efficient recombination; extreme values may be limits of the assay; sequences stand for … in AGTGCAGAGAAAATCGGCCAGTTTTCTCTGCCTGCAGTCCGCATGCCGTGGGACCCCTTGGGTTCTAACCTGTTGCCTAGATTTATGCAGCGGACTGCCTTTCTCCCAAAGTGATAAACCGG…AGGTTGGTTTCACT; site = the 11-nt donor
How it was run: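 Counts of recombinant UMIs were reported as log10(CPM+1). Before that, they were converted to CPM, averaged over replicates and scaled using control-derived factors. They came from PCR across the donor–target junction after Escherichia coli carrying the pair library and target plasmid was plated on IPTG (0.07 mM) plus kanamycin, or unselected, in two replicates each.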
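Note: IS621 bridge recombinase in Escherichia coli cells against a fixed T5 target plasmid.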

Going from “ATCCATACATGGACCGGTTTTCCCGGTAATCCGTATTTGAC (site ATCAATACTGT)” to “ATCCATACATGGACCGGTTTTCCCGGTAATCCGTATTTGAC (site ATCCATACTGT)”, the “recombinant UMI read abundance (log10)” value rises from 0 to 1.77.

“ATCCATACATGGACCGGTTTTCCCGGTAATCCGTATTTGAC (site ATCGATACTGT)” and “ATCCATACATGGACCGGTTTTCCCGGTAATCCGTATTTGAC (site ATCTATACTGT)” are the same in “recombinant UMI read abundance (log10)” value: 0 for the first, 0 for the second.

Compared with “ATCCCCTCATGGACCGGTTTTCCCGGTAATCCGTATTTGGA (site ATCCCCTCTTC)”, “ATCCCGGCATGGACCGGTTTTCCCGGTAATCCGTATTTGAG (site CGAAGCCCTAG)” is lower in “recombinant UMI read abundance (log10)” value: 1.95 for the first, 0 for the second.

“ATCCGACCATGGACCGGTTTTCCCGGTAATCCGTATTTGTC (site ATCCGACCTGA)” and “ATCCTTTCATGGACCGGTTTTCCCGGTAATCCGTATTTGAC (site AACCTTTCTGT)” are the same in “recombinant UMI read abundance (log10)” value: 0 for the first, 0 for the second.

“ATCCTTTCATGGACCGGTTTTCCCGGTAATCCGTATTTGAC (site ACCCTTTCTGT)” and “ATCCTTTCATGGACCGGTTTTCCCGGTAATCCGTATTTGAC (site AGCCTTTCTGT)” are the same in “recombinant UMI read abundance (log10)” value: 0 for the first, 0 for the second.

Compared with “ATCCTTTCATGGACCGGTTTTCCCGGTAATCCGTATTTGAC (site ATCCTTTCTGT)”, “ATCGAATCATGGACCGGTTTTCCCGGTAATCCGTATTTGAA (site ATCGAATCTTT)” is higher in “recombinant UMI read abundance (log10)” value: 0 for the first, 2.58 for the second.

First: ATCGCCTCATGGACCGGTTTTCCCGGTAATCCGTATTTGGG (site ATCGCCTCTCC)
Second: ATCGCGTCATGGACCGGTTTTCCCGGTAATCCGTATTTGAA (site ATCGCGTCTTT)
The “recombinant UMI read abundance (log10)” value of the first is lower: 0.29 for the first, 2.01 for the second.

Compared with “ATCGTGCCATGGACCGGTTTTCCCGGTAATCCGTATTTGTT (site ATCGTGCCTAA)”, “ATCTAAACATGGACCGGTTTTCCCGGTAATCCGTATTTGAC (site ATCTAAACTGT)” is higher in “recombinant UMI read abundance (log10)” value: 0.0076 for the first, 2.72 for the second.

Going from “ATCTAAACATGGACCGGTTTTCCCGGTAATCCGTATTTGAC (site ATCTACACTGT)” to “ATCTAAACATGGACCGGTTTTCCCGGTAATCCGTATTTGAC (site ATCTAGACTGT)”, the “recombinant UMI read abundance (log10)” value falls from 0.25 to 0.

Going from “ATCTAAACATGGACCGGTTTTCCCGGTAATCCGTATTTGAC (site ATCTATACTGT)” to “ATCTACACATGGACCGGTTTTCCCGGTAATCCGTATTTGAC (site ATCTAAACTGT)”, the “recombinant UMI read abundance (log10)” value rises from 0.00453 to 1.21.

First: ATCTACACATGGACCGGTTTTCCCGGTAATCCGTATTTGAC (site ATCTACACTGT)
Second: ATCTACACATGGACCGGTTTTCCCGGTAATCCGTATTTGAC (site ATCTAGACTGT)
The “recombinant UMI read abundance (log10)” value of the first is higher: 2.83 for the first, 0 for the second.

Compared with “ATCTACACATGGACCGGTTTTCCCGGTAATCCGTATTTGAC (site ATCTATACTGT)”, “ATCTAGACATGGACCGGTTTTCCCGGTAATCCGTATTTGAG (site ATCTAGACTCT)” is higher in “recombinant UMI read abundance (log10)” value: 0.824 for the first, 1.31 for the second.

“ATCTAGGCATGGACCGGTTTTCCCGGTAATCCGTATTTGGC (site ATATAGGCTGC)” and “ATCTAGGCATGGACCGGTTTTCCCGGTAATCCGTATTTGGC (site ATCTAGGCTGC)” are the same in “recombinant UMI read abundance (log10)” value: 0 for the first, 0 for the second.

“ATCTAGGCATGGACCGGTTTTCCCGGTAATCCGTATTTGGC (site ATGTAGGCTGC)” and “ATCTAGGCATGGACCGGTTTTCCCGGTAATCCGTATTTGGC (site ATTTAGGCTGC)” are the same in “recombinant UMI read abundance (log10)” value: 0 for the first, 0 for the second.

Going from “ATCTATACATGGACCGGTTTTCCCGGTAATCCGTATTTGAG (site ATCTATACTAT)” to “ATCTATACATGGACCGGTTTTCCCGGTAATCCGTATTTGAG (site ATCTATACTCT)”, the “recombinant UMI read abundance (log10)” value rises from 0.478 to 1.31.

“ATCTATACATGGACCGGTTTTCCCGGTAATCCGTATTTGAG (site ATCTATACTGT)” and “ATCTATACATGGACCGGTTTTCCCGGTAATCCGTATTTGAG (site ATCTATACTTT)” are within 0.2 log units of each other in “recombinant UMI read abundance (log10)” value: 0 for the first, 0.0268 for the second.

Going from “ATCTATACATGGACCGGTTTTCCCGGTAATCCGTATTTGGC (site ATCTATACTGA)” to “ATCTATACATGGACCGGTTTTCCCGGTAATCCGTATTTGGC (site ATCTATACTGC)”, the “recombinant UMI read abundance (log10)” value rises from 1.09 to 2.23.

Going from “ATCTATACATGGACCGGTTTTCCCGGTAATCCGTATTTGGC (site ATCTATACTGG)” to “ATCTATACATGGACCGGTTTTCCCGGTAATCCGTATTTGGC (site ATCTATACTGT)”, the “recombinant UMI read abundance (log10)” value rises from 0 to 2.09.

“ATCTGTACATGGACCGGTTTTCCCGGTAATCCGTATTTGAC (site ATCTATACTGT)” and “ATCTGTACATGGACCGGTTTTCCCGGTAATCCGTATTTGAC (site ATCTCTACTGT)” are the same in “recombinant UMI read abundance (log10)” value: 0 for the first, 0 for the second.
